Our source for the IC50 values is patent US12336981B2, “Compounds and compositions for the inhibition of NAMPT” (Valo Health, Inc., priority 2010, dated 2025).

Experiment [1] addresses T1, NAMPT (Homo sapiens, UniProt P43490).
T1 construct: His tag; host or cells: E. coli
Put plainly: Biochemical inhibition assay: NAMPT enzymatic reaction, NMN quantified by mass spectrometry. Particulars: read-out: Biochem IC50. The gist of the method:
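Inhibition of E. coli-expressed His-tagged human NAMPT, measured as NMN formation by mass spectrometry after a 30 min room-temperature reaction containing 1 μM NAM, 100 μM PRPP and 2.5 mM ATP.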

Experiment [2] deals with A2780 cells. Put plainly: In-vitro cell proliferation assay (SRB), A2780 cells. To be noted: A2780 cells, 72 hours, read-out: A2780 IC50. The experiment is classed as cell-based. In short, it runs like this:
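Growth inhibition was derived from background-corrected SRB absorbance (570 nm), measured on cells fixed in 6% TCA after three days of compound treatment under 5% CO2 at 37° C.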

[3] abbreviates: Homo sapiens, A2780, 72 h, SRB assay.

Where “and” joins values, the source holds several entries; their conditions need not be identical. Identical values can stand only once. Like-named read-outs stand apart in the source and are kept apart here.

A word on the IC50: it is the midpoint of a concentration-inhibition curve.

T1 sequence (P43490 whole entry): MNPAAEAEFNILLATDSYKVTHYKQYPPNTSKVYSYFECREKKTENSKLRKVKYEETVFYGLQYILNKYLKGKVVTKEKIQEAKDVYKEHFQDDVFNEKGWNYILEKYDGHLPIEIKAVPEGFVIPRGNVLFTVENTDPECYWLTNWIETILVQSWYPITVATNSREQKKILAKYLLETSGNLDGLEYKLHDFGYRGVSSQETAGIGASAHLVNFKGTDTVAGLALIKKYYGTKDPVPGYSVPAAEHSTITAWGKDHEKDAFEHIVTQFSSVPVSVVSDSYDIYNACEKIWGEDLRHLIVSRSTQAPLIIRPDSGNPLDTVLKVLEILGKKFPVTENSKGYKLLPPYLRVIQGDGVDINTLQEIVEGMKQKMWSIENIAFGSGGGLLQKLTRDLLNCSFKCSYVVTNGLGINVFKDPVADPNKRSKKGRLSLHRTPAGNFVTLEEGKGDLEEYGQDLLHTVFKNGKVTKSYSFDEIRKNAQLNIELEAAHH

For `O=C(NCc1ccc(S(=O)(=O)c2ccc(N3CCOCC3)cc2)cc1)c1cnc2[nH]ncc2c1` [N-[(4-{[4-(morpholin-4-yl)benzene]sulfonyl}phenyl)methyl]-1H-pyrazolo[3,4-b]pyridine-5-carboxamide], the IC50 in experiment [1] (NAMPT enzymatic assay) worked out at 4.45 nM; in experiment [2] (Homo sapiens, A2780, 72 h, SRB) it was 2.47 nM.
In the case of `COc1ccccc1NS(=O)(=O)c1ccc(CNC(=O)c2cc3cnccc3[nH]2)cc1` [N-({4-[(2-methoxyphenyl)sulfamoyl]phenyl}methyl)-1H-pyrrolo[3,2-c]pyridine-2-carboxamide], the concentration for half-maximal inhibition (IC50) in experiment [1] (NAMPT enzymatic reaction) came out at 89 nM; in experiment [2] (setting [3]), 2150 nM.
Regarding `Cc1ccc(S(=O)(=O)c2ccc(CNC(=O)c3cnc4nccn4c3)cc2)c(Cl)c1`, the 50% inhibitory concentration (IC50) in experiment [1] (NAMPT enzymatic reaction) came to 1.5 nM; in experiment [2] (Homo sapiens, A2780, 72 h, SRB), 0.7 nM.
The like results for `O=C(NCc1ccc(S(=O)(=O)c2cccc(F)c2)cc1)c1ccc2nccn2c1` [N-({4-[(3-fluorobenzene)sulfonyl]phenyl}methyl)imidazo[1,2-a]pyridine-6-carboxamide] were, in that order, 22.1 nM and 12.2 nM.
The like results for `CCOc1ccc(S(=O)(=O)c2ccc(CNC(=O)c3ccc4nccn4c3)cc2)cc1` were, in that order, 4.5 nM and 2.9 nM.
For `Cc1ncccc1S(=O)(=O)c1ccc(CNC(=O)c2cnc3[nH]ncc3c2)cc1` [N-{[4-(2-methylpyridine-3-sulfonyl)phenyl]methyl}-1H-pyrazolo[3,4-b]pyridine-5-carboxamide], the half-inhibitory concentration (IC50) stood at 105 nM in experiment [1] (NAMPT enzymatic assay) and 136 nM in experiment [2] (Homo sapiens, A2780, 72 h, SRB).
For the compound `Cc1cc(C)n(-c2cccc(S(=O)(=O)c3ccc(CNC(=O)c4ccc5nccn5c4)cc3)c2)n1`, the IC50 in experiment [1] (NAMPT enzymatic assay) came to 7.2 nM; in experiment [2] (Homo sapiens, A2780, 72 h, SRB), 0.8 nM.
For the compound `Cc1ccc(S(=O)(=O)c2ccc(CNC(=O)c3cnc4[nH]ncc4c3)cc2)cc1C`, the concentration for half-maximal inhibition (IC50) in experiment [1] (NAMPT enzymatic reaction) worked out at 5.1 nM; in experiment [2] (Homo sapiens, A2780, 72 h, SRB) it was 3.4 nM.
With `O=C(NCc1ccc(S(=O)(=O)c2cccc(N3CCCCC3)c2)cc1)c1cnc2nccn2c1`, the IC50 in experiment [1] (NAMPT enzymatic assay) is 5.1 nM and 1.2 nM; in experiment [2] (SRB) it was 5.7 nM; in experiment [2] (Homo sapiens, A2780, 72 h, SRB) it was 11.4 nM.
As to `COc1ccc(S(=O)(=O)c2ccc(CNC(=O)c3cc4ccncc4s3)cc2)c(OC)c1` [N-({4-[(2,4-dimethoxybenzene)sulfonyl]phenyl}methyl)thieno[2,3-c]pyridine-2-carboxamide], the IC50 in experiment [1] (NAMPT enzymatic reaction) worked out at 4.5 nM; in experiment [2] (Homo sapiens, A2780, 72 h, SRB) it was 1.6 nM.
The like results for `CCOc1ccc(S(=O)(=O)c2ccc(CNC(=O)c3cc4ccncc4s3)cc2)c(C)c1` were, in that order, 1.2 nM and 13.2 nM.
On to `COc1ccc(F)cc1NS(=O)(=O)c1ccc(CNC(=O)c2cc3cnccc3[nH]2)cc1` [N-({4-[(5-fluoro-2-methoxyphenyl)sulfamoyl]phenyl}methyl)-1H-pyrrolo[3,2-c]pyridine-2-carboxamide], for which the figures for the 50% inhibitory concentration (IC50) in experiment [1] (NAMPT enzymatic reaction) and in experiment [2] (setting [3]) were 232 nM and greater than 30000 nM, respectively.
Turning to `Cc1ccc(C)c(S(=O)(=O)c2ccc(CNC(=O)c3cnc4[nH]ncc4c3)cc2)c1` [N-({4-[(2,5-dimethylbenzene)sulfonyl]phenyl}methyl)-1H-pyrazolo[3,4-b]pyridine-5-carboxamide], the IC50 in experiment [1] (NAMPT enzymatic reaction) is 20.9 nM; in experiment [2] (Homo sapiens, A2780, 72 h, SRB), 17.2 nM.
As to `COc1ccc(Cl)cc1S(=O)(=O)c1ccc(CNC(=O)c2cc3ccncc3s2)cc1` [N-({4-[(5-chloro-2-methoxybenzene)sulfonyl]phenyl}methyl)thieno[2,3-c]pyridine-2-carboxamide], the concentration for half-maximal inhibition (IC50) in experiment [1] (NAMPT enzymatic reaction) is 4 nM; in experiment [2] (setting [3]), 1.3 nM.
In the case of `Cc1cc(C(F)(F)F)ccc1S(=O)(=O)c1ccc(CNC(=O)c2ccc3nccn3c2)cc1`, the IC50 in experiment [1] (NAMPT enzymatic assay) was 24.7 nM; in experiment [2] (Homo sapiens, A2780, 72 h, SRB), 16.6 nM.
`COc1ccc(Cl)c(S(=O)(=O)c2ccc(CNC(=O)c3cc4ccncc4s3)cc2)c1`: the concentration for half-maximal inhibition (IC50) in experiment [1] (NAMPT enzymatic reaction) came to 4.9 nM; in experiment [2] (Homo sapiens, A2780, 72 h, SRB), 5.3 nM.
For `Cc1cccc(S(=O)(=O)c2ccc(CNC(=O)c3cc4ccncc4o3)cc2)c1C`, the 50% inhibitory concentration (IC50) in experiment [1] (NAMPT enzymatic reaction) was 51.6 nM; in experiment [2] (Homo sapiens, A2780, 72 h, SRB) it was 8 nM.
On to `CCCOc1cccc(S(=O)(=O)c2ccc(CNC(=O)c3cnc4[nH]ncc4c3)cc2)c1` [N-({4-[(3-propoxybenzene)sulfonyl]phenyl}methyl)-1H-pyrazolo[3,4-b]pyridine-5-carboxamide], for which the IC50 is 30.4 nM in experiment [1] (NAMPT enzymatic reaction) and 41 nM in experiment [2] (Homo sapiens, A2780, 72 h, SRB).
Consider `O=C(NCc1ccc(S(=O)(=O)c2cc(F)cc(Cl)c2)cc1)c1cnc2[nH]ncc2c1`, for which the IC50 in experiment [1] (NAMPT enzymatic reaction) amounted to 13.3 nM; in experiment [2] (Homo sapiens, A2780, 72 h, SRB) it was 6 nM.
Turning to `COc1ccc(C(C)=O)cc1S(=O)(=O)c1ccc(CNC(=O)c2cnc3[nH]ncc3c2)cc1`, the IC50 stood at 27.7 nM in experiment [1] (NAMPT enzymatic reaction) and 27.5 nM in experiment [2] (Homo sapiens, A2780, 72 h, SRB).
`CN(C)C(=O)c1ccccc1S(=O)(=O)c1ccc(CNC(=O)c2cnc3nccn3c2)cc1` [N-[(4-{[2-(dimethylcarbamoyl)benzene]sulfonyl}phenyl)methyl]imidazo[1,2-a]pyrimidine-6-carboxamide]: the IC50 in experiment [1] (NAMPT enzymatic assay) was in the range of 100 to 1000 nM; in experiment [2] (Homo sapiens, A2780, 72 h, SRB), 1000 to 10000 nM.
`COc1ccc(C)cc1S(=O)(=O)c1ccc(CNC(=O)c2cc3ccncc3o2)cc1`: the 50% inhibitory concentration (IC50) in experiment [1] (NAMPT enzymatic reaction) came to 13.3 nM; in experiment [2] (Homo sapiens, A2780, 72 h, SRB) it was 6.8 nM.
As to `O=C(NCc1ccc(S(=O)(=O)c2ccc(OCC(F)(F)F)c(F)c2)cc1)c1cc2ccncc2s1`, the 50% inhibitory concentration (IC50) in experiment [1] (NAMPT enzymatic assay) was found to be 4.6 nM; in experiment [2] (Homo sapiens, A2780, 72 h, SRB) it was 23.5 nM.
For the compound `O=C(NCc1ccc(S(=O)(=O)c2cc(F)cc(N3CCOCC3)c2)cc1)c1ccc2nccn2c1`, the half-inhibitory concentration (IC50) was 3 nM in experiment [1] (NAMPT enzymatic assay) and 0.6 nM in experiment [2] (Homo sapiens, A2780, 72 h, SRB).
Turning to `O=C(NCc1ccc(S(=O)(=O)c2cccc(Cl)c2)cc1)c1cc2ccncc2s1` [N-({4-[(3-chlorobenzene)sulfonyl]phenyl}methyl)thieno[2,3-c]pyridine-2-carboxamide], the IC50 in experiment [1] (NAMPT enzymatic reaction) stood at 5 nM; in experiment [2] (setting [3]) it was 3 nM.
With `Cc1c(F)cccc1S(=O)(=O)c1ccc(CNC(=O)c2cc3cnccc3[nH]2)cc1`, the IC50 in experiment [1] (NAMPT enzymatic reaction) is 57.6 nM; in experiment [2] (Homo sapiens, A2780, 72 h, SRB), 13.2 nM.
`CCCCOc1ccc(S(=O)(=O)c2ccc(CNC(=O)c3ccc4nccn4c3)cc2)c(C)c1`: the IC50 was 10 nM in experiment [1] (NAMPT enzymatic reaction) and 22.4 nM in experiment [2] (Homo sapiens, A2780, 72 h, SRB).
As to `O=C(NCc1ccc(S(=O)(=O)c2cc(F)ccc2CO)cc1)c1cnc2nccn2c1`, the IC50 is 12.9 nM in experiment [1] (NAMPT enzymatic assay) and 100 to 1000 nM in experiment [2] (Homo sapiens, A2780, 72 h, SRB).
Regarding `O=C(NCc1ccc(S(=O)(=O)c2cccc(CN3CCCCC3)c2)cc1)c1ccc2nccn2c1`, the IC50 in experiment [1] (NAMPT enzymatic assay) came out at 9.1 nM; in experiment [2] (Homo sapiens, A2780, 72 h, SRB) it was 3.5 nM.
For the compound `COc1cncc(S(=O)(=O)c2ccc(CNC(=O)c3cc4ccncc4s3)cc2)c1` [N-{[4-(5-methoxypyridine-3-sulfonyl)phenyl]methyl}thieno[2,3-c]pyridine-2-carboxamide], the 50% inhibitory concentration (IC50) in experiment [1] (NAMPT enzymatic assay) turned out to be 9 nM; in experiment [2] (Homo sapiens, A2780, 72 h, SRB) it was 1.6 nM.
As to `O=C(NCc1ccc(S(=O)(=O)c2ccc(-n3cccn3)c(F)c2)cc1)c1cc2cnccc2[nH]1` [N-[(4-{[3-fluoro-4-(1H-pyrazol-1-yl)benzene]sulfonyl}phenyl)methyl]-1H-pyrrolo[3,2-c]pyridine-2-carboxamide], the IC50 in experiment [1] (NAMPT enzymatic reaction) came out at 11 nM; in experiment [2] (setting [3]), 4 nM.
As for `Cc1ccc(S(=O)(=O)c2ccc(CNC(=O)c3cnc4[nH]ncc4c3)cc2)c(Cl)c1` [N-({4-[(2-chloro-4-methylbenzene)sulfonyl]phenyl}methyl)-1H-pyrazolo[3,4-b]pyridine-5-carboxamide], the IC50 is 5 nM in experiment [1] (NAMPT enzymatic reaction) and 2.78 nM in experiment [2] (Homo sapiens, A2780, 72 h, SRB).
For the compound `COc1ccc(C)cc1S(=O)(=O)c1ccc(CNC(=O)c2cc3ccncc3s2)cc1` [N-({4-[(2-methoxy-5-methylbenzene)sulfonyl]phenyl}methyl)thieno[2,3-c]pyridine-2-carboxamide], the IC50 was 6 nM in experiment [1] (NAMPT enzymatic reaction) and 2.5 nM in experiment [2] (setting [3]).
Turning to `O=C(NCc1ccc(S(=O)(=O)c2ccccc2)cc1)N1CCc2nocc2C1` [N-{[4-(benzenesulfonyl)phenyl]methyl}-4H,5H,6H,7H-[1,2]oxazolo[4,3-c]pyridine-5-carboxamide], the IC50 in experiment [1] (NAMPT enzymatic reaction) and in experiment [2] (setting [3]) was greater than 2000 nM each time.
As for `COc1cc(C)c(S(=O)(=O)c2ccc(CNC(=O)c3cc4ccncc4o3)cc2)cc1C`, the 50% inhibitory concentration (IC50) in experiment [1] (NAMPT enzymatic reaction) was determined as 12.3 nM; in experiment [2] (Homo sapiens, A2780, 72 h, SRB), 12.8 nM.
In the case of `CC(=O)c1ccccc1S(=O)(=O)c1ccc(CNC(=O)c2cc3ccncc3o2)cc1` [N-({4-[(2-acetylbenzene)sulfonyl]phenyl}methyl)furo[2,3-c]pyridine-2-carboxamide], the 50% inhibitory concentration (IC50) in experiment [1] (NAMPT enzymatic reaction) came to 5.7 nM; in experiment [2] (Homo sapiens, A2780, 72 h, SRB), 6.5 nM.
As to `O=C(NCc1ccc(S(=O)(=O)c2cccc(OC(F)(F)F)c2)cc1)c1cc2cnccc2[nH]1` [N-[(4-{[3-(trifluoromethoxy)benzene]sulfonyl}phenyl)methyl]-1H-pyrrolo[3,2-c]pyridine-2-carboxamide], the IC50 in experiment [1] (NAMPT enzymatic reaction) came to 5 nM; in experiment [2] (setting [3]), 3 nM.
`CC(C)Oc1cc(F)ccc1S(=O)(=O)c1ccc(CNC(=O)c2cc3ccncc3s2)cc1`: the IC50 in experiment [1] (NAMPT enzymatic assay) came to 5 nM; in experiment [2] (Homo sapiens, A2780, 72 h, SRB) it was 1.6 nM.
For the compound `CCCOc1cccc(F)c1S(=O)(=O)c1ccc(CNC(=O)c2ccc3nccn3c2)cc1`, the IC50 was 91.4 nM in experiment [1] (NAMPT enzymatic reaction) and 1 nM in experiment [2] (Homo sapiens, A2780, 72 h, SRB).
Take `O=C(NCc1ccc(S(=O)(=O)c2ccccc2)cc1)c1cc(-c2cccnc2)no1` [N-{[4-(benzenesulfonyl)phenyl]methyl}-3-(pyridin-3-yl)-1,2-oxazole-5-carboxamide]: the IC50 in experiment [1] (NAMPT enzymatic reaction) is 33 nM; in experiment [2] (setting [3]), greater than 30000 nM.
`COc1cc(F)c(F)cc1S(=O)(=O)c1ccc(CNC(=O)c2ccc3nccn3c2)cc1` [N-({4-[(4,5-difluoro-2-methoxybenzene)sulfonyl]phenyl}methyl)imidazo[1,2-a]pyridine-6-carboxamide]: the IC50 in experiment [1] (NAMPT enzymatic reaction) is 28.1 nM; in experiment [2] (Homo sapiens, A2780, 72 h, SRB), 6.8 nM.
For `O=C(NCc1ccc(S(=O)(=O)c2cc(F)cc(C(F)(F)F)c2)cc1)c1cc2ccncc2o1`, the IC50 in experiment [1] (NAMPT enzymatic assay) came to 7.4 nM; in experiment [2] (Homo sapiens, A2780, 72 h, SRB) it was 5 nM.
